Data set [1] deals with Indica rice. As to the kind of experiment: Post-emergence test experiment (Table 4), crop safety. The format is in vivo. The note with it: after 3 weeks.
For data set [2], the system named is Japonica rice. The data set is described as above. The note with it: after 3 weeks. The format is in vivo.
For data set [3], the system named is ALS resistant Cyperus iria. Put plainly: Post-emergence test experiment (Table 4), weed control. The format is in vivo. Particulars: after 3 weeks.
The test system of data set [4] is ALS resistant Echinochloa crusgalli. The description is as above. The format is in vivo. The note with it: after 3 weeks.
Data set [5] concerns rice (japonica rice). As to the kind of experiment: Transplanted rice safety evaluation. Format: in vivo. The note with it: 1000 g/ha, transplanted 3-leaf stage japonica rice, treated 5 days after transplantation, 21 days after treatment. The source says:
The activity level standard of harmful plants destruction (i. e. growth inhibition rate) is as follows: • Level 5: the growth inhibition rate is greater than 85%; • Level 4: the growth inhibition rate is equal to or greater than 60% and less than 85%; • Level 3: the growth inhibition rate is equal to or greater than 40% and less than 60%; • Level 2: the growth inhibition rate is equal to or greater than 20% and less than 40%; • Level 1: the growth inhibition rate is equal to or greater than 5% and less than 20%; • Level 0: the growth inhibition rate is less than 5%;
Transplanted rice safety evaluation and weed control effect evaluation in rice field:
In addition, the rice field soil that loaded into the 1/1,000,000 ha pot was leveled to keep water storage at 3-4 cm depth. The 3-leaf stage rice (japonica rice) was transplanted at 3 cm of transplanting depth the next day. The compound of the present invention was treated by the same way after 5 days of transplantation.
The fertility condition of Monochoria vaginalis 14 days and rice 21 days after the treatment of the compound of the invention with the naked eye.

Data set [6] relates to Monochoria vaginalis. Put plainly: Weed control effect evaluation in rice field. Format: in vivo. The note with it: 1000 g/ha, paddy water application at 0.5 leaf stage, 14 days after treatment, weeds resistant to pyrazosulfuron-ethyl and penoxsulam.
The subject of data set [7] is Abutilon theophrasti. Put plainly: Post-emergence test experiment (Table 3, 1000 g/ha). The format is in vivo. The note with it: post-emergence spray, after 3 weeks, fresh weight inhibition. In short, it runs like this: (§1)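 Weed seeds sown in soil-filled pots in greenhouse, sprayed at 2-3 leaf stage (2 weeks after sowing) with compound in acetone/tween-80 plus methyl oleate emulsible concentrate (1.5 L/ha) diluted in water. Fresh-weight growth inhibition scored after 3 weeks on 0-5 scale (5: >85%, 0: <5%).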

Data set [8] concerns Digitaria sanguinalis. Described as above. Particulars: post-emergence spray, after 3 weeks, fresh weight inhibition. The format is in vivo. In short, it runs like this: as §1
For data set [9], the system named is Galium spurium. Described as above. The format is in vivo. The note with it: post-emergence spray, after 3 weeks, fresh weight inhibition. The gist of the method:
as §1

The subject of data set [10] is Leptochloa chinensis. Described as above. Format: in vivo. Particulars: post-emergence spray, after 3 weeks, fresh weight inhibition. In short, it runs like this:
as §1

Data set [11] relates to Monochoria vaginalis. The description is as above. Format: in vivo. Particulars: post-emergence spray, after 3 weeks, fresh weight inhibition. The gist of the method: as §1
The subject of data set [12] is Setaria viridis. Described as above. The note with it: post-emergence spray, after 3 weeks, fresh weight inhibition. The format is in vivo. In short, it runs like this:
as §1

Data set [13] relates to rice. The note with it: known compound; cited from earlier work.
[14] abbreviates: 600 g/ha active ingredient, plus water 450 kg/ha.

These results are taken from patent US12391648B2, “Pyridyloxy thioester derivative and preparation method therefor, herbicidal composition, and application” (Qingdao Kingagroot Chemical Compound Co., Ltd., priority 2018, dated 2025).

`CC(C)=NOCCSC(=O)C(C)Oc1nc(F)c(Cl)c(N)c1Cl` (stereo not drawn) [Compound 97]: the “Indica rice, activity level (growth inhibition rate)” value in [1] (setting [14]) is 0 (Level 0: the growth inhibition rate is less than 5%). Further, the “Japonica rice, activity level (growth inhibition rate)” value in data set [2] (setting [14]) is reported as 0 (Level 0: the growth inhibition rate is less than 5%). Moreover, the “ALS resistant Cyperus iria, activity level (growth inhibition rate)” value in [3] (setting [14]) is reported as 5 (Level 5: the growth inhibition rate is greater than 85%). For the same molecule, in [4] (setting [14]), the “ALS resistant Echinochloa crusgalli, activity level (growth inhibition rate)” value is recorded as 5 (Level 5: the growth inhibition rate is greater than 85%). The “Rice, activity standard level 0-5 (safety)” value (from here on “Rice … (safety)”) in data set [5] was 0 (Level 0: the growth inhibition rate is less than 5%). In data set [6], the “Monochoria Vaginalis, activity standard level 0-5” value is 5 (Level 5: the growth inhibition rate is greater than 85%). For the same molecule, in data set [7], the “Activity level (growth inhibition rate) Abutilon theophrasti” value is given as 5 (Level 5: the growth inhibition rate is greater than 85%). Further, the “Activity level (growth inhibition rate) Digitaria sanguinalis” value in data set [8] is listed as 5 (Level 5: the growth inhibition rate is greater than 85%). Besides, the “Activity level (growth inhibition rate) Galium spurium” value in data set [9] is listed as 5 (Level 5: the growth inhibition rate is greater than 85%). Further, the “Activity level (growth inhibition rate) Leptochloa chinensis” value in data set [10] was 5 (Level 5: the growth inhibition rate is greater than 85%). Besides, in data set [11], the “Activity level (growth inhibition rate) Monochoria Vaginalis” value is reported as 5 (Level 5: the growth inhibition rate is greater than 85%). In addition, the “Activity level (growth inhibition rate) Setaria viridis” value in [12] is 5 (Level 5: the growth inhibition rate is greater than 85%).

For the molecule `COC(=O)OC(C)SC(=O)C(C)Oc1nc(F)c(Cl)c(N)c1Cl` (stereo not drawn) [Compound 98], in data set [1] (setting [14]), the “Indica rice, activity level (growth inhibition rate)” value is given as 0 (Level 0: the growth inhibition rate is less than 5%). Moreover, the “Japonica rice, activity level (growth inhibition rate)” value in data set [2] (setting [14]) is 0 (Level 0: the growth inhibition rate is less than 5%). In addition, in data set [3] (setting [14]), the “ALS resistant Cyperus iria, activity level (growth inhibition rate)” value was 5 (Level 5: the growth inhibition rate is greater than 85%). Further, in data set [4] (setting [14]), the “ALS resistant Echinochloa crusgalli, activity level (growth inhibition rate)” value was 5 (Level 5: the growth inhibition rate is greater than 85%). Besides, in [5], the “Rice … (safety)” value is on record as 0 (Level 0: the growth inhibition rate is less than 5%). For the same molecule, the “Monochoria Vaginalis, activity standard level 0-5” value in data set [6] is recorded as 5 (Level 5: the growth inhibition rate is greater than 85%). Also, the “Activity level (growth inhibition rate) Abutilon theophrasti” value in data set [7] is recorded as 5 (Level 5: the growth inhibition rate is greater than 85%). In data set [8], the “Activity level (growth inhibition rate) Digitaria sanguinalis” value is listed as 5 (Level 5: the growth inhibition rate is greater than 85%). Further, the “Activity level (growth inhibition rate) Galium spurium” value in [9] is listed as 5 (Level 5: the growth inhibition rate is greater than 85%). Also, the “Activity level (growth inhibition rate) Leptochloa chinensis” value in data set [10] is 5 (Level 5: the growth inhibition rate is greater than 85%). The “Activity level (growth inhibition rate) Monochoria Vaginalis” value in data set [11] was 5 (Level 5: the growth inhibition rate is greater than 85%). The “Activity level (growth inhibition rate) Setaria viridis” value in [12] is 5 (Level 5: the growth inhibition rate is greater than 85%).

Regarding `CSC(=O)C(C)Oc1nc(F)c(Cl)c(NCc2ccco2)c1Cl` (stereo not drawn) [Compound 130], the “Indica rice, activity level (growth inhibition rate)” value in data set [1] (setting [14]) is given as 0 (Level 0: the growth inhibition rate is less than 5%). Moreover, in [2] (setting [14]), the “Japonica rice, activity level (growth inhibition rate)” value was 0 (Level 0: the growth inhibition rate is less than 5%). Moreover, in [3] (setting [14]), the “ALS resistant Cyperus iria, activity level (growth inhibition rate)” value is on record as 5 (Level 5: the growth inhibition rate is greater than 85%). Further, the “ALS resistant Echinochloa crusgalli, activity level (growth inhibition rate)” value in data set [4] (setting [14]) was 5 (Level 5: the growth inhibition rate is greater than 85%). The “Rice … (safety)” value in data set [5] was 0 (Level 0: the growth inhibition rate is less than 5%). In [6], the “Monochoria Vaginalis, activity standard level 0-5” value was 5 (Level 5: the growth inhibition rate is greater than 85%). For the same molecule, the “Activity level (growth inhibition rate) Abutilon theophrasti” value in data set [7] is 5 (Level 5: the growth inhibition rate is greater than 85%). Further, the “Activity level (growth inhibition rate) Digitaria sanguinalis” value in data set [8] is 5 (Level 5: the growth inhibition rate is greater than 85%). Further, the “Activity level (growth inhibition rate) Galium spurium” value in [9] is recorded as 5 (Level 5: the growth inhibition rate is greater than 85%). The “Activity level (growth inhibition rate) Leptochloa chinensis” value in data set [10] is listed as 5 (Level 5: the growth inhibition rate is greater than 85%). Also, the “Activity level (growth inhibition rate) Monochoria Vaginalis” value in data set [11] is listed as 5 (Level 5: the growth inhibition rate is greater than 85%). Moreover, the “Activity level (growth inhibition rate) Setaria viridis” value in data set [12] is on record as 5 (Level 5: the growth inhibition rate is greater than 85%).

Take `CC(Oc1nc(F)c(Cl)c(N)c1Cl)C(=O)O` (stereo not drawn) [Control compound A, reference compound]: the “Indica rice, activity level (growth inhibition rate)” value is 2 (Level 2: the growth inhibition rate is equal to or greater than 20% and less than 40%) in data set [1] (300 g/ha); 3 (Level 3: the growth inhibition rate is equal to or greater than 40% and less than 60%) in [1] (setting [14]). Also, the “Japonica rice, activity level (growth inhibition rate)” value is 3 (Level 3: the growth inhibition rate is equal to or greater than 40% and less than 60%) in [2] (300 g/ha); 3 (Level 3: the growth inhibition rate is equal to or greater than 40% and less than 60%) in data set [2] (setting [14]). Besides, the “ALS resistant Cyperus iria, activity level (growth inhibition rate)” value in data set [3] (300 g/ha) is 4 (Level 4: the growth inhibition rate is equal to or greater than 60% and less than 85%); in data set [3] (setting [14]), 5 (Level 5: the growth inhibition rate is greater than 85%). Also, the “ALS resistant Echinochloa crusgalli, activity level (growth inhibition rate)” value in data set [4] (300 g/ha) is 4 (Level 4: the growth inhibition rate is equal to or greater than 60% and less than 85%); in [4] (setting [14]), 5 (Level 5: the growth inhibition rate is greater than 85%). Also, in data set [13], the “safety and selectivity in rice” value is “poor safety and low selectivity in rice”.
